Measured values as given in paper PMC11456916, “A screen for cell envelope stress uncovers an inhibitor of prolipoprotein diacylglyceryl transferase, Lgt, in Escherichiacoli” (iScience, 2024).

System: 356 CRISPRi constructs in E. coli ΔtolC-pore
Experiment: CRISPRi collection fitness screen with sub-inhibitory compound
Format: cell-based
Details: for Growth represented as mean colony biomass: 1μg/ml MAC0452936, 6ng/ml LolCDE-in-1, 250 ng/ml Vancomycin, 7 ng/ml CHIR090, n=4; for Growth, mean colony biomass (n=4): + 7 ng/ml CHIR090
Excerpt: To that end, we screened the E. coli CRISPRi collection in the ΔtolC-pore genetic background with a sub-inhibitory concentration of MAC-0452936 and measured the fitness of all 356 CRISPRi mutants (Figure 4C and Data S4). […] To that end, we introduced either an arabinose inducible copy of lgt supplied on the pCHAP9231 plasmid[48] or the pBAD19s plasmid as a control into E. coli ΔtolC-pore and tested the potency of MAC-0452936 (Figure 4E). […] To test this hypothesis, we constructed E. coli ΔlgtΔtolC-pore with pCHAP9231[48] so that lgt expression was driven solely by arabinose from the plasmid.
For screens of the CRISPRi collection with MAC-0452936, the mobile CRISPRi collection was first conjugated into E. coli ΔtolC-pore as previously described.[30] The CRISPRi collection was then arrayed on solid agar at 1536 density using the Singer-ROTOR, such that each CRISPRi strain is arrayed in technical quadruplicate. […] The screens were conducted without CRISPRi induction, using just the 5–10% basal knockdown from the pFD152 CRISPRi plasmid. Following overnight growth, plates were imaged using high-resolution scanners (Epson Perfection v750), and colony biomass for each mutant was determined.

[1] = sub-inhibitory (¼ MIC) concentration, LB agar, basal knockdown

## C[C@@H](O)[C@H](NC(=O)c1ccc(C#Cc2ccc(CN3CCOCC3)cc2)cc1)C(=O)NO [CHIR090]
gRNA accA
  Growth represented as mean colony biomass: 0.9728
gRNA aceF
  Growth, mean colony biomass (n=4): 1.1
gRNA alaS
  Growth, mean colony biomass (n=4): 1.087
gRNA argS
  Growth, mean colony biomass (n=4): 1.119
gRNA asnS
  Growth, mean colony biomass (n=4): 1.015
gRNA bamA
  Growth, mean colony biomass (n=4): 1.043
gRNA bamD
  Growth, mean colony biomass (n=4): 1.088
gRNA bioA
  Growth, mean colony biomass (n=4): 1.01
gRNA can
  Growth, mean colony biomass (n=4): 1.059
gRNA cca
  Growth represented as mean colony biomass: 0.9249
gRNA coaA
  Growth represented as mean colony biomass: 0.8479
gRNA csrA
  Growth, mean colony biomass (n=4): 1.056
gRNA cydA
  Growth represented as mean colony biomass: 1.062
gRNA cydX
  Growth represented as mean colony biomass: 1.061
gRNA dapD
  Growth represented as mean colony biomass: 0.9522
gRNA dapE
  Growth represented as mean colony biomass: 1.007
gRNA der
  Growth represented as mean colony biomass: 0.9768
gRNA dfp
  Growth represented as mean colony biomass: 0.8989
gRNA dnaC
  Growth, mean colony biomass (n=4): 1.065
gRNA dnaE
  Growth represented as mean colony biomass: 1.058
gRNA dnaN
  Growth represented as mean colony biomass: 1.037
gRNA dnaX
  Growth represented as mean colony biomass: 0.9219
gRNA dut
  Growth, mean colony biomass (n=4): 0.9955
gRNA eno
  Growth represented as mean colony biomass: 0.9728
gRNA era
  Growth represented as mean colony biomass: 1.02
gRNA fabA
  Growth represented as mean colony biomass: 0.9775
gRNA fabG
  Growth represented as mean colony biomass: 1.01
gRNA fabI
  Growth represented as mean colony biomass: 0.9675
gRNA fdx
  Growth represented as mean colony biomass: 0.979
gRNA fldA
  Growth represented as mean colony biomass: 1.057
gRNA folA
  Growth, mean colony biomass (n=4): 0.9636
gRNA folB
  Growth represented as mean colony biomass: 1.017
gRNA folC
  Growth, mean colony biomass (n=4): 1.012
gRNA folE
  Growth represented as mean colony biomass: 0.9169
gRNA folP
  Growth represented as mean colony biomass: 0.9924
gRNA frr
  Growth represented as mean colony biomass: 0.9411
gRNA ftsA
  Growth, mean colony biomass (n=4): 0.9154
gRNA gapA
  Growth represented as mean colony biomass: 0.9821
gRNA glmS
  Growth, mean colony biomass (n=4): 1.055
gRNA glmU
  Growth represented as mean colony biomass: 1.014
gRNA gltX
  Growth represented as mean colony biomass: 0.9512
gRNA glyA
  Growth, mean colony biomass (n=4): 1.052
gRNA groS
  Growth represented as mean colony biomass: 0.9583
gRNA grpE
  Growth represented as mean colony biomass: 1.032
gRNA guaA
  Growth represented as mean colony biomass: 0.9865
gRNA hemD
  Growth, mean colony biomass (n=4): 1.036
gRNA hemG
  Growth represented as mean colony biomass: 0.9689
gRNA hemH
  Growth represented as mean colony biomass: 0.992
gRNA hemL
  Growth represented as mean colony biomass: 0.9608
gRNA higA
  Growth represented as mean colony biomass: 1.023
gRNA hisS
  Growth represented as mean colony biomass: 0.9896
gRNA holD
  Growth represented as mean colony biomass: 0.9599
gRNA hscA
  Growth represented as mean colony biomass: 0.9776
gRNA infA
  Growth, mean colony biomass (n=4): 1.073
gRNA infC
  Growth represented as mean colony biomass: 1.06
gRNA iscU
  Growth represented as mean colony biomass: 0.9911
gRNA ispB
  Growth represented as mean colony biomass: 0.9696
gRNA ispF
  Growth represented as mean colony biomass: 0.9551
gRNA leuS
  Growth, mean colony biomass (n=4): 1.366
gRNA lexA
  Growth, mean colony biomass (n=4): 1.376
gRNA lolC
  Growth represented as mean colony biomass: 0.8957
gRNA lptA
  Growth, mean colony biomass (n=4): 1.212
gRNA lptB
  Growth, mean colony biomass (n=4): 1.0261
gRNA lptC
  Growth represented as mean colony biomass: 1.089
gRNA lptE
  Growth represented as mean colony biomass: 1.06
gRNA lptF
  Growth represented as mean colony biomass: 1.019
gRNA lptG
  Growth represented as mean colony biomass: 1.007
gRNA lpxC
  Growth represented as mean colony biomass: 0.3105
gRNA lpxD
  Growth represented as mean colony biomass: 1.005
gRNA mnmA
  Growth, mean colony biomass (n=4): 1.028
gRNA mrdB
  Growth, mean colony biomass (n=4): 0.9292
gRNA mreB
  Growth represented as mean colony biomass: 0.9175
gRNA mreC
  Growth represented as mean colony biomass: 0.8842
gRNA msbA
  Growth, mean colony biomass (n=4): 1.129
gRNA mukF
  Growth, mean colony biomass (n=4): 0.98
gRNA murB
  Growth represented as mean colony biomass: 1.054
gRNA murC
  Growth represented as mean colony biomass: 0.9542
gRNA murI
  Growth, mean colony biomass (n=4): 1.202
gRNA nadK
  Growth, mean colony biomass (n=4): 1.005
gRNA nusB
  Growth represented as mean colony biomass: 1.054
gRNA plsB
  Growth represented as mean colony biomass: 0.9093
gRNA prmC
  Growth, mean colony biomass (n=4): 0.9966
gRNA proS
  Growth represented as mean colony biomass: 0.9867
gRNA psd
  Growth, mean colony biomass (n=4): 1.319
gRNA pssA
  Growth, mean colony biomass (n=4): 0.939
gRNA ptsI
  Growth, mean colony biomass (n=4): 1.093
gRNA racR
  Growth represented as mean colony biomass: 0.9688
gRNA rho
  Growth, mean colony biomass (n=4): 0.9866
gRNA ribA
  Growth represented as mean colony biomass: 0.9235
gRNA ribC
  Growth represented as mean colony biomass: 0.9738
gRNA ribD
  Growth, mean colony biomass (n=4): 1.097
gRNA ribF
  Growth represented as mean colony biomass: 0.9595
gRNA rimM
  Growth represented as mean colony biomass: 0.9147
gRNA rluD
  Growth represented as mean colony biomass: 1.0007
gRNA rne
  Growth, mean colony biomass (n=4): 1.043
gRNA rpe
  Growth represented as mean colony biomass: 1.042
gRNA rplA
  Growth, mean colony biomass (n=4): 0.9782
gRNA rplD
  Growth represented as mean colony biomass: 0.927
gRNA rplE
  Growth represented as mean colony biomass: 1.02
gRNA rplJ
  Growth represented as mean colony biomass: 0.8734
gRNA rplO
  Growth represented as mean colony biomass: 0.8878
gRNA rplP
  Growth, mean colony biomass (n=4): 1.09
gRNA rplQ
  Growth represented as mean colony biomass: 1.099
gRNA rplS
  Growth represented as mean colony biomass: 0.9537
gRNA rplV
  Growth, mean colony biomass (n=4): 1.004
gRNA rplX
  Growth, mean colony biomass (n=4): 1.052
gRNA rplY
  Growth represented as mean colony biomass: 1.0779
gRNA rpmC
  Growth, mean colony biomass (n=4): 0.9906
gRNA rpmH
  Growth represented as mean colony biomass: 1.001
gRNA rpmI
  Growth represented as mean colony biomass: 0.9513
gRNA rpoC
  Growth, mean colony biomass (n=4): 1.121
gRNA rpoE
  Growth, mean colony biomass (n=4): 1.013
gRNA rpoH
  Growth represented as mean colony biomass: 1.038
gRNA rpsC
  Growth, mean colony biomass (n=4): 1.084
gRNA rpsD
  Growth, mean colony biomass (n=4): 1.134
gRNA rpsE
  Growth represented as mean colony biomass: 0.9264
gRNA rpsF
  Growth represented as mean colony biomass: 1.096
gRNA rpsG
  Growth, mean colony biomass (n=4): 0.9816
gRNA rpsH
  Growth represented as mean colony biomass: 0.9044
gRNA rpsK
  Growth, mean colony biomass (n=4): 1.022
gRNA rpsL
  Growth, mean colony biomass (n=4): 1.049
gRNA rpsM
  Growth, mean colony biomass (n=4): 0.9866
gRNA rpsR
  Growth, mean colony biomass (n=4): 1.0423
gRNA rpsT
  Growth, mean colony biomass (n=4): 0.8858
gRNA rsgA
  Growth represented as mean colony biomass: 0.9517
gRNA safA
  Growth represented as mean colony biomass: 1.0001
gRNA secA
  Growth, mean colony biomass (n=4): 1.136
gRNA secY
  Growth represented as mean colony biomass: 1.007
gRNA serS
  Growth represented as mean colony biomass: 1.071
gRNA ssb
  Growth represented as mean colony biomass: 1.053
gRNA sucA
  Growth represented as mean colony biomass: 0.9406
gRNA suhB
  Growth, mean colony biomass (n=4): 1.008
gRNA tilS
  Growth represented as mean colony biomass: 1.04
gRNA tonB
  Growth represented as mean colony biomass: 0.9801
gRNA trmD
  Growth represented as mean colony biomass: 0.9934
gRNA tsaB
  Growth represented as mean colony biomass: 1.008
gRNA tsaD
  Growth represented as mean colony biomass: 0.9494
gRNA tsaE
  Growth, mean colony biomass (n=4): 1.05
gRNA tsf
  Growth represented as mean colony biomass: 1.069
gRNA tusE
  Growth represented as mean colony biomass: 1.0146
gRNA tyrS
  Growth represented as mean colony biomass: 0.993
gRNA ubiB
  Growth represented as mean colony biomass: 0.9982
gRNA ubiD
  Growth represented as mean colony biomass: 0.963
gRNA waaA
  Growth, mean colony biomass (n=4): 1.006
gRNA ydaS
  Growth represented as mean colony biomass: 0.976
gRNA ydcD
  Growth represented as mean colony biomass: 0.9913
gRNA ydhL
  Growth represented as mean colony biomass: 0.9285
gRNA yedN
  Growth, mean colony biomass (n=4): 0.9909
gRNA yejM
  Growth represented as mean colony biomass: 0.9171
gRNA yffS
  Growth represented as mean colony biomass: 1.036
gRNA ygeF
  Growth represented as mean colony biomass: 1.069
gRNA ygeN
  Growth, mean colony biomass (n=4): 0.9546
gRNA yidC
  Growth represented as mean colony biomass: 0.9824
gRNA ymfE
  Growth represented as mean colony biomass: 0.9789
gRNA ymiB
  Growth represented as mean colony biomass: 1.048
gRNA yqeL
  Growth, mean colony biomass (n=4): 1.42
gRNA yqgF
  Growth represented as mean colony biomass: 1.058
gRNA zipA
  Growth, mean colony biomass (n=4): 1.877
[1]
  growth defect of CRISPRi strains for the compound's molecular target (LolCDE complex and LpxC, respectively): strongest growth defect
  growth defect of the lgt CRISPRi mutant in the presence of compound: did not demonstrate a growth defect
